According to patent publication US20160113900A1, “INHIBITORS OF MITOCHONDRIAL STAT3 AND USES THEREOF IN MODULATION OF MAST CELL EXOCYTOSIS” (Yissum Research Development Company of the Hebrew …, priority 2014, published 2016):
Blank lines part the entries; values can stand above or below the compound they belong to.

How the values were obtained:
[1] = cited from earlier work
RBL cells [2] = test: β-Hexosaminidase release assay (degranulation) in RBL cells; assay type: cell-based, rat
Procedure: (§1) RBL-2H3 cells were maintained in RPMI 1640 medium as previously described1. Bone marrow was isolated from 5-6 week-old mice, and BMMC were cultured in RPMI medium supplemented with 20 ng/ml interleukin-3 (IL-3) and 20 ng/ml SCF as previously described2, 3. Cells were generally grown for a minimum of 4 weeks and used when >90% of the population expressed FcεRI. BMMC and RBL cells were sensitized first with anti-DNP IgE monoclonal antibody (SPE-7; Sigma-Aldrich Corp.) and then challenged with DNP-BSA (Sigma-Aldrich Corp.). IgE antibody was centrifuged (18,000 g, 5 min) before use to remove aggregates. […] For glycolysis elimination cells were maintained in glucose-free RPMI supplemented with 10% dialyzed fetal calf serum and 5 mM galactose.
(§2) 1×104 RBL or 3×104 BMMC were immunologically activated as described above. After IgE incubation, the cells were washed three times with 5 mL of degranulation buffer (NaCl 130 mM, KCl 5 mM, Glucose 5.6 mM, MgCl2 1 mM, CaCl2 1.2 mM, Hepes pH 7.4 10 mM, BSA 0.1%) and resuspended in 200 μL of the same buffer with DNP-albumin for 30 min. The release of β-hexosaminidase was determined in triplicates in a 96-well plate. Aliquots (20 μL) of supernatants and cell lysates were incubated for 30 minutes with 100 μL of substrate solution (1.3 mg/mL p-nitrophenyl-b-D-2-acetamido-2-deoxyglucopyranozide in 0.1 M citrate [pH 4.51]). The reaction was stopped by the addition of 200 μL of 0.2 M glycine (pH 10.7). The plate OD was read in an enzyme-linked immunosorbent assay (ELISA) reader at a wavelength of 405 nm Percent release values for each experimental condition were calculated3.

BMMC [3] = test: Measurements of secreted mediators (ELISA) in activated BMMC; assay type: cell-based, mouse
Procedure: 1×106 BMMC were immunologically activated as described above. After IgE incubation, the cells were washed three times in PBS and incubated with DNP-albumin (Sigma-Aldrich) for 30 mM in complete growth medium. Supernatant was collected and Granzyme B and TNFα content were measured using ELISA Kits (eBioscience).

RBL cells [4] = test: ATP determination (ATPLite luminescence) in RBL cells; assay type: cell-based, rat; conditions: RBL cells
Procedure: as §1
ATP levels were measured using the ATPLite luminescence-based assay according to the manufacturer's instructions (Perkin Elmer, Waltham, Mass., USA).

BMMC [5] = test: β-Hexosaminidase release assay (degranulation) in BMMC; assay type: cell-based, mouse; conditions: activated BMMC, 6 μM
Procedure: as §1, §2

caspase3 [6] = test: Western blot of cleaved caspase3 in BMMC; assay type: cell-based, mouse; conditions: 6 μM (FIG. 21D)
caspase3 [7] = test: Western blot of caspase3 / cleaved caspase3 (apoptosis) in RBL cells; assay type: cell-based, rat; conditions: RBL cells
Procedure: (§3) RBL cells and mitochondrial pellets were lysed by the addition of lysis buffer (50 mM Tris-HCl pH 7.4, 1% Nonidet P-40, 0.25% Na-deoxycholate, 150 mM NaCl, 1 mM EDTA, 1 mM PMSF) supplemented with 15 μl protease inhibitor (Sigma-Aldrich). Cells and mitochondria were vortexed and incubated on ice for 15 min. The lysates were then centrifuged at 14,000 g for 15 min and pellets were discarded. The protein concentration of each sample was determined using Bradford Reagent (Sigma-Aldrich). Proteins were resolved by 10-15% SDS-PAGE under reducing conditions and transferred to polyvinylidene difluoride membranes (Millipore Billerica, Ma). The membranes were incubated in 5% fat-free milk and TBST (10 mM Tris-HCl, pH 7.4, 150 mM NaCl, 0.1% Tween 20) for 1 h and then in 5% BSA and TBST containing various dilutions of primary Abs for 18 h at 4° C. The membranes were washed three times with TBST for 5 mM before and after each incubation with secondary Ab. The proteins were detected with the appropriate secondary Ab (1 h; room temperature) coupled to HRP-conjugated goat anti-rabbit or anti-mouse Ab and visualized by chemiluminescence according to the manufacturer's instructions (Pierce).

CBMC = test: β-Hexosaminidase release assay (degranulation) in human cord blood-derived mast cells; assay type: cell-based; conditions: 12 μM, 3 h incubation
c-myc = test: Western blot of c-myc (STAT3 target gene) in RBL cells; assay type: cell-based, rat; conditions: 3 h
Procedure: as §3
The levels of cleaved caspase3 were measured as an indicator of apoptosis, which could occur as a result of inhibiting STAT3's target genes. […] Since higher concentrations reduced the levels of c-myc and enhanced the levels of cleaved caspase3, the inventors concluded that 6 μM Mitocur-1/3 or lower would be suitable for the present invention. As these molecules are intended to be used in a time frame greater than 3 h, RBL cells were incubated with the same concentrations of Mitocur-1/3 for 24 h and the levels of cleaved caspase3 were determined by Western blot analysis.

RBL cells [8] = test: Oxygen consumption (Seahorse XF analyzer) in RBL cells; assay type: cell-based, rat; conditions: RBL cells, 3 h
Procedure: as §1
Oxygen consumption rate (OCR) was measured using an XF24 extracellular flux analyzer (Seahorse Biosciences, North Billeric, Mass., USA).

plasma histamine = test: In vivo histamine release assay, passive systemic IgE-mediated anaphylaxis model; conditions: mice, Mitocur-3 40 mg/kg i.p., 3.5 h before DNP-BSA challenge
Procedure: C3H 6-7 week male and female WT mice were purchased from Jackson Lab (Cambridge, Mass., USA), mice were fed a regular diet and with drinking water ad libitum. Experiments were approved by The Hebrew University Ethical Committee for Animal Experimentation.
WT C3H mice were sensitized with 3 μg murine IgE anti-DNP mAb SPE-7 by means of intravenous injection in the tail vein. Twenty-four hours later, mice were treated with 40 mg/kg of static dissolved in corn oil or corn oil alone for 2.5 hours, then mice were challenged with i.v. injection of DNP-BSA (250 μg per mouse). 100 μl of blood was collected immediately and added to an equal volume of pre-cold Alsever's Solution. Blood was centrifuged 2000 g for […] and plasma supernatant was collected. Plasma histamine levels were determined by using competitive ELISA (IBL International Gmbh, Hamburg, Germany).
STAT3's role in vivo was investigated by evaluating the response to allergic stimulation in Stattic-treated mice. The passive systemic IgE-mediated anaphylaxis model was used. Mice were injected (i.v.) with IgE anti-DNP. Twenty four hours later they were injected (i.p.) with Stattic (80 mg/kg) or corn oil which was used as control. Three and a half hours later the mice were challenged with DNP-BSA for 1.5 minutes. Plasma was collected, and histamine levels were measured by competitive ELISA. Histamine secretion in Stattic-treated mice was 43% less than that in control mice (FIG. 17, p<0.05).
Mitocur-1/3 effectiveness in vivo was investigated by evaluating the response to allergic stimulation in Mitocur-1/3-treated mice. The passive systemic IgE-mediated anaphylaxis model was used. Mice were injected (i.v.) with IgE anti-DNP. Twenty four hours later they were injected (i.p.) with Mitocur-1 (80 mg/kg) and Mitocur-3 (40 mg/kg). Corn oil was used as control. Three and a half hours later the mice were challenged with DNP-BSA for 1.5 minutes. Plasma was collected, and histamine levels were measured by competitive ELISA. Histamine secretion in Mitocur-1-treated mice was 35% less than that in control mice (FIG. 22A, p<0.05).

RBL cells [9] = test: TNF-α secretion of activated RBL cells; assay type: cell-based, rat; conditions: activated RBL cells (FIG. 19G)
[10] = immunologically activated BMMC, 6 μM (FIG. 21C)

SMILES: COc1cc(/C=C/C(=O)CC(=O)/C=C/c2ccc(O)c(OC)c2)ccc1O [curcumin, (1E,6E)-1,7-Bis(4-hydroxy-3-methoxyphenyl)-1,6-heptadiene-3,5-dione]
- pKa of the two phenolic OH groups [1]: 10-10.5
- degranulation (β-hexosaminidase release) (RBL cells [2]; RBL cells, curcumin 12.5, 25, 50 and 100 μM, 10 min (FIG. 19A)): significantly reduced
- degranulation levels (RBL cells [2]; activated RBL cells, 10 min incubation with curcumin (FIG. 8)): completely abolished

- melting point: 145 to 160 °C
- degranulation levels (BMMC [5]; 3 h incubation): reduced
- degranulation levels (BMMC [5]; 24 h incubation): reduced
- cleaved caspase3 levels (caspase3 [6]): no change
SMILES: O=C(/C=C/c1ccc(OCCC[P+](c2ccccc2)(c2ccccc2)c2ccccc2)cc1)CC(=O)/C=C/c1ccc(OCCC[P+](c2ccccc2)(c2ccccc2)c2ccccc2)cc1 [Mitocur-3, 1,7-{4-[3-(triphenylphosphonium)propoxy]phenyl}hepta-1,6-diene-3,5-dione dichloride]
- Granzyme-B secretion (BMMC [3]; BMMC (data not shown)): abolished
- cytokine secretion: IL-6 (BMMC [3]; [10]): totally abolished
- cytokine secretion: TNF-α (BMMC [3]; [10]): totally abolished
- ATP levels (RBL cells [4]; 100 μM, 3 h (data not shown)): reduced
- ATP levels (RBL cells [4]; 6-50 μM, 3 h): No significant reduction
- Emax at 6 µM (RBL cells [2]; Rattus norvegicus, RBL cells, 6 μM, 3 h incubation, read-out: maximum effect, reduction of degranulation): > 50%
- cleaved caspase levels (caspase3 [7]; 6 μM, 3 h): no change
- cleaved caspase3 levels (caspase3 [7]; 6 μM, 24 h): slight change
- cleaved caspase3 levels (caspase3 [7]; concentrations higher than 6 μM, 3 h): enhanced
- degranulation levels (CBMC): successfully reduced
- c-myc levels compared to control (c-myc; 6 μM): no change
- c-myc levels (c-myc; concentrations higher than 6 μM): reduced
- oxygen consumption (RBL cells [8]; 100 μM): reduced
- oxygen consumption (RBL cells [8]; 6-50 μM): No significant reduction
- decrease in histamine secretion (plasma histamine): 32.4%
- TNF-α secretion (RBL cells [9]): completely abolished
